These results are taken from PubChem BioAssay (NCI).

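Each compound was tested at five concentrations against cells in 96-well plates for 48 hours. Abbreviation: GI50, concentration required for 50% inhibition of growth. The concentration for full growth arrest is given as TGI.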

Some test systems named below: UACC-62 melanoma; SK-OV-3 ovarian; IGROV1 ovarian; HS 578T breast; SR leukemia; SF-295 CNS; SW-620 colon; SF-268 CNS; BT-549 breast; SK-MEL-28 melanoma.
Holding throughout (assay): inhibition of tumour cell growth, NCI panel, 48 h

As for `CN(C)CCNC(=O)NC[C@H]1CC[C@@H]2[C@H](O1)c1cc(C(F)(F)F)ccc1N[C@H]2c1ccccc1`, the GI50 in the assay with UACC-62 melanoma was 0.276 µM; in the assay with SK-OV-3 ovarian, 0.0425 µM; in the assay with IGROV1 ovarian it was 0.578 µM; in the assay on HS 578T breast, 0.173 µM; in the assay on SR leukemia, 0.0411 µM; in the assay with SF-295 CNS, 0.194 µM. The GI50 in the assay on SW-620 colon is 0.0765 µM; with SF-268 CNS, 0.589 µM; in the assay with BT-549 breast, 0.389 µM; in the assay with SK-MEL-28 melanoma, 1.63 µM. Also, the TGI with UACC-62 melanoma is 15.9 µM; with SK-OV-3 ovarian, 10 µM; in the assay on IGROV1 ovarian it was 40.7 µM; in the assay on HS 578T breast it was 18.1 µM; in the assay on SR leukemia, 15.1 µM; in the assay on SF-295 CNS, 5.73 µM. Also, the TGI turned out to be 17.1 µM in the assay on SW-620 colon, 39.6 µM in the assay on SF-268 CNS, 14.7 µM in the assay with BT-549 breast and 21.5 µM in the assay with SK-MEL-28 melanoma.
For `C=CCc1c(O)c(C(=O)/C=C/c2ccccc2)c(OC)c2ccoc12`, the GI50 is 2.74 µM with UACC-62 melanoma; 8.08 µM in the assay on SK-OV-3 ovarian; 3.35 µM in the assay on IGROV1 ovarian; 3.89 µM in the assay on HS 578T breast; 2.15 µM with SR leukemia; 2.44 µM with SF-295 CNS. Also, the GI50 in the assay on SW-620 colon was 3.32 µM; in the assay with SF-268 CNS, 2.8 µM; in the assay on BT-549 breast it was 2.63 µM; in the assay on SK-MEL-28 melanoma, 2.49 µM. Also, the TGI came to 9.93 µM in the assay on UACC-62 melanoma; 21.2 µM in the assay on SK-OV-3 ovarian; 11.6 µM in the assay on IGROV1 ovarian; 33.8 µM in the assay on HS 578T breast; 6.05 µM in the assay on SR leukemia; 7.26 µM in the assay on SF-295 CNS. The TGI with SW-620 colon was determined as 12.1 µM; in the assay with SF-268 CNS, 10.7 µM; with BT-549 breast it was 8.09 µM; in the assay with SK-MEL-28 melanoma, 8.28 µM.
Take `CN(C)c1ccc(N=C2C=CC(=O)c3ccccc32)cc1`: the GI50 in the assay with UACC-62 melanoma was 1.71 µM; in the assay with SK-OV-3 ovarian, 17 µM; with IGROV1 ovarian it was 2.76 µM; in the assay on HS 578T breast, 1.97 µM; in the assay with SR leukemia it was 2.86 µM; in the assay on SF-295 CNS, 1.68 µM. In addition, the GI50 in the assay with SW-620 colon was 1.68 µM; in the assay with SF-268 CNS, 2.92 µM; in the assay with BT-549 breast, 7.49 µM; in the assay on SK-MEL-28 melanoma it was 2.38 µM. The TGI in the assay with UACC-62 melanoma is 3.24 µM; in the assay with SK-OV-3 ovarian, more than 100 µM; with IGROV1 ovarian, 9.28 µM; in the assay with HS 578T breast, 6.09 µM; with SR leukemia, 14.1 µM; in the assay with SF-295 CNS it was 3.66 µM. Further, the TGI was determined as 3.42 µM in the assay with SW-620 colon, 13.1 µM in the assay with SF-268 CNS, 20.5 µM in the assay on BT-549 breast and 5.73 µM in the assay with SK-MEL-28 melanoma.
`Cc1nccc2c3ccc(OCc4cn(-c5ccc(Cl)cc5)nn4)cc3n(CC(C)C)c12`: the GI50 in the assay with UACC-62 melanoma was 2.31 µM; with SK-OV-3 ovarian it was 4.25 µM; with IGROV1 ovarian, 4.99 µM; with HS 578T breast, 2.62 µM; with SR leukemia it was 1.03 µM; in the assay with SF-295 CNS it was 1.25 µM. The GI50 in the assay with SW-620 colon was 3.33 µM; in the assay with SF-268 CNS, 11.2 µM; in the assay with BT-549 breast, 1.51 µM; in the assay with SK-MEL-28 melanoma it was 4.14 µM. Also, the TGI with UACC-62 melanoma worked out at 10.1 µM; in the assay on SK-OV-3 ovarian, 16.5 µM; in the assay with IGROV1 ovarian, 18.7 µM; with HS 578T breast, 30.1 µM; in the assay on SR leukemia it was 5.53 µM; with SF-295 CNS, 7.64 µM. Moreover, the TGI is more than 33.3 µM with SW-620 colon, more than 33.3 µM with SF-268 CNS, 7.12 µM in the assay with BT-549 breast and 18.2 µM with SK-MEL-28 melanoma.
Turning to `CCCN1CCC(c2ccc(Nc3nc(Nc4cc(F)ccc4C(N)=O)c4cc[nH]c4n3)c(OC)c2)CC1`, the GI50 with UACC-62 melanoma is 3.58 µM; with SK-OV-3 ovarian, 3.03 µM; in the assay on IGROV1 ovarian it was 1.87 µM; in the assay on HS 578T breast it was 3.84 µM; with SR leukemia, 0.0131 µM; in the assay with SF-295 CNS, 3.86 µM. Also, the GI50 in the assay on SW-620 colon was 0.099 µM; in the assay with SF-268 CNS it was 3.42 µM; in the assay on BT-549 breast, 4.16 µM; in the assay on SK-MEL-28 melanoma, 4.19 µM. The TGI was 7.44 µM in the assay on UACC-62 melanoma; 6.93 µM in the assay on SK-OV-3 ovarian; 7.44 µM with IGROV1 ovarian; 12.3 µM in the assay on HS 578T breast; 4.54 µM in the assay on SR leukemia; 8.37 µM in the assay on SF-295 CNS. For the same molecule, the TGI in the assay on SW-620 colon worked out at 3.04 µM; in the assay on SF-268 CNS, 7.8 µM; with BT-549 breast it was 8.19 µM; with SK-MEL-28 melanoma it was 8.1 µM.
For `C#Cc1cccc(NC(=O)c2ccc(NC(=O)CCl)cc2)c1`, the GI50 was 36.9 µM in the assay with UACC-62 melanoma; more than 82.5 µM with SK-OV-3 ovarian; 10.6 µM in the assay with IGROV1 ovarian; 27.9 µM in the assay with HS 578T breast; 7.17 µM in the assay with SR leukemia; more than 82.5 µM with SF-295 CNS. Besides, the GI50 in the assay on SW-620 colon was 15.7 µM; with SF-268 CNS it was 18.7 µM; in the assay on BT-549 breast, 11.1 µM; in the assay on SK-MEL-28 melanoma, more than 82.5 µM. In addition, the TGI is more than 82.5 µM with UACC-62 melanoma; more than 82.5 µM in the assay on SK-OV-3 ovarian; 23.7 µM in the assay on IGROV1 ovarian; more than 82.5 µM with HS 578T breast; 26.6 µM in the assay on SR leukemia; more than 82.5 µM in the assay on SF-295 CNS. Further, the TGI in the assay on SW-620 colon is 34 µM; in the assay with SF-268 CNS it was more than 82.5 µM; in the assay with BT-549 breast, 23.9 µM; with SK-MEL-28 melanoma, more than 82.5 µM.
In the case of `O=C(O[C@H]1CCN2C[C@H]3C[C@H](CN4C(=O)CCC[C@H]34)[C@@H]2C1)c1ccc(O)cc1`, the TGI in the assay with UACC-62 melanoma, in the assay with SK-OV-3 ovarian, in the assay on IGROV1 ovarian, in the assay with HS 578T breast, in the assay with SR leukemia and in the assay with SF-295 CNS was more than 100 µM each time. In addition, the TGI in the assay on SW-620 colon, in the assay on SF-268 CNS, in the assay on BT-549 breast and in the assay with SK-MEL-28 melanoma was more than 100 µM in each case.
For `CN1CCN(Cc2ccc(NC(=O)c3cncc(C#Cc4cnc(N)c5cnccc45)c3)cc2C(F)(F)F)CC1`, the GI50 is 0.0782 µM in the assay with UACC-62 melanoma; 0.181 µM with SK-OV-3 ovarian; 0.141 µM in the assay on IGROV1 ovarian; 0.122 µM with HS 578T breast; 0.229 µM in the assay on SR leukemia; 0.799 µM in the assay on SF-295 CNS. Also, the GI50 was 0.182 µM in the assay on SW-620 colon, 0.234 µM in the assay on SF-268 CNS, 1.08 µM with BT-549 breast and 0.0937 µM in the assay with SK-MEL-28 melanoma. Further, the TGI in the assay with UACC-62 melanoma was determined as 0.282 µM; in the assay with SK-OV-3 ovarian, 6.21 µM; with IGROV1 ovarian, 0.649 µM; in the assay on HS 578T breast, 0.7 µM; in the assay with SR leukemia, 2.97 µM; in the assay with SF-295 CNS, 7.07 µM. Moreover, the TGI turned out to be 2.62 µM in the assay on SW-620 colon, 6.93 µM in the assay with SF-268 CNS, 7.23 µM with BT-549 breast and 0.394 µM in the assay on SK-MEL-28 melanoma.
